Here are results for one molecule from patent publication US11214805B2, “Targeted nanocarriers for the administration of immunosuppressive agents” (MUSC FOUNDATION FOR RESEARCH DEVELOPMENT, priority 2014, dated 2022).

The test system of one experiment is MHC I. Description: Western blot of MHC I in lysates of HUVEC treated with pro-inflammatory cytokine cocktail. Format: cell-based, Human. The settings on record: IL-1β, INFγ, TNFα cocktail; 10 or 100 ng/mL. The method, then: Cells were then lysed using mammalian protein extraction reagent (Pierce, Ill.) supplemented with Halt Protease and Phosphatase Inhibitor Cocktails. Lysates were centrifuged at 10,000 rpm for 15 minutes. All western blot reagents were purchased from Bio-Rad (CA) unless specified. The protein concentration of each lysate was determined via Bradford calorimetric Assay (Thermo Scientific, PA; 232225), and 1.6 μg of protein from each whole cell lysate was added to a 4-20% precast gel and subjected to SDS-page electrophoresis. Protein was transferred to a PVDF membrane by semi-dry transfer, where it was stained with anti-MHC class I antibody (W6) and blocked overnight with TBS-T (Tris-Buffered Saline-Tween 20) containing 5% nonfat dry milk and 0.5% BSA. An appropriate HRP-conjugated secondary antibody was added to fresh block solution at a 1:1000 dilution to incubate for 1 hour at room temperature. The protein band was then detected by enhanced chemiluminescence (ECL).
Background: A western blot detects proteins with antibodies after separation by electrophoresis.

Experiment [1] concerns transplanted tracheas (chronic rejection). The settings on record: graft stored 4 hrs at 4° C. in UW solution with additive; harvested 28 days after transplantation.
Description: Twenty eight days later transplanted tracheas were harvested and assessed for the degree of chronic rejection.

Turning to `CO[C@H]1C[C@@H]2CC[C@@H](C)[C@@](O)(O2)C(=O)C(=O)N2CCCC[C@H]2C(=O)O[C@H]([C@H](C)C[C@@H]2CC[C@@H](O)[C@H](OC)C2)CC(=O)[C@H](C)/C=C(\C)[C@@H](O)[C@@H](OC)C(=O)[C@H](C)C[C@H](C)/C=C/C=C/C=C/1C` [free rapamycin, rapamycin], the “level of MHC I expression in HUVEC” value in the experiment on MHC I is “able to down regulate”. In addition, the “degree of chronic rejection (fibrosis, inflammation, epithelium) as compared to UW alone” value in experiment [1] is “reduced fibrosis, inflammation and preserved normal pseudo stratified respiratory epithelium”.
